The record followed here is a melting point compilation (Tetko et al.; mined from patent text by program, amines drawn as free bases though some values may be those of a salt).

As usually defined, the melting point is the temperature of the solid-liquid transition.

Some results are limits rather than exact numbers.

As to `CCCOC(=O)Nc1nc2ccccc2c2c1nc(COCC)n2CC(C)(C)NS(C)(=O)=O`, the melting point was 125 to 127 °C.
The value for `N=C(N)Nc1nc(CSCCNc2[nH]ccc2[N+](=O)[O-])cs1` was 196 to 200 °C; that for `CC(=O)N(OC(=O)NC(C)(C)C)C(=O)NC(C)(C)C` was 111 to 113 °C; that for `N/C(=C1\C(=O)c2cc(Cl)ccc2S1=O)c1ccccc1Cl` (stereo unspecified) was 248 °C.
As for `N#Cc1ccc(-c2ccc(-c3cn4cc(C#N)ccc4n3)o2)cc1`, the figure is 298 to 300 °C; as for `CCCNCCC1Cc2ccc(-c3ccc(=O)[nH]n3)cc2C1` (stereo unspecified), 150 to 151 °C.
As for `CCOC(=O)c1cn(-c2ccc(C(F)(F)F)cc2)nc1C(C)C`, the figure is 74 to 75 °C; as for `O=C(Cc1ccc(I)cc1)NC[C@H]1CCCN1CCF`, 96 °C.
Turning to `CCc1cccc(C)c1CNc1cc(C(N)=O)nc2c1nc(C)n2C`, the melting point lay in the range of 237 to 239 °C.
The value for `CSc1nc2ccnn2c(N)c1C#N` was > 240 °C.
The compound `CCN(Cc1ccccc1)C(=O)c1c(-c2ccncc2)c(-c2ccc(F)cc2)nn1CC` came in with a melting point of 115 to 117 °C.
In turn, `Cc1ccc(-n2ncc(C(=O)O)c2C(N)=O)cc1C` registered a melting point of 231 to 232 °C.
The value for `NCc1cccc(-c2csc(N=C(N)N)n2)n1` was 228 to 229 °C; that for `Cc1cc2c(C(=O)C3=C(O)C4CCC(C4)C3=O)ccc(S(C)(=O)=O)c2o1` (stereo unspecified) was 258 to 259 °C; that for `O=C(O)COC1Cc2sc(S(=O)(=O)C(c3ccccc3F)c3ccccc3F)nc2-c2ccccc21` (stereo unspecified) was 204 to 208 °C.
As for `CC(C)(c1cccc(C(F)(F)F)c1)N1C[C@H]([C@H](Cc2ccccc2)NC(=O)c2cc(C(=O)O)c3n2CCN(S(C)(=O)=O)C3)OC1=O`, the figure is 147 °C.
The compound `CCCCCCCCc1ccc(N(c2ccc(CCCCCCCC)cc2)C2(c3ccc(N(CC)CC)cc3C)OC(=O)c3nccnc32)cc1` (stereo unspecified) came in with a melting point of 180 to 187 °C.
The value for `O=C(c1ccc(-c2ccccc2)cc1)C1(n2cncn2)CC1` was 154 to 155 °C; that for `CCNc1ncc2ccc(=O)n(C)c2n1` was 194 to 195 °C.
`COc1nc(C)cc(C(=O)NS(=O)(=O)c2ccccc2[N+](=O)[O-])n1` had a melting point of 212 to 216 °C.
As for `CC1(C)C(=O)Nc2ccc(-c3ccc(F)c(Cl)c3)cc21`, the figure is 206 to 208 °C.
As for `COCCOc1ccc(/C=C/COC(=O)NS(=O)(=O)NCCN2CCCC2)c(Oc2ncc(C(F)(F)F)cc2Cl)c1`, the figure is 154 to 156 °C.
The value for `CC(=O)OCC1OC(Cl)C(N=[N+]=[N-])C(OC(C)=O)C1OC1OC(COC(C)=O)C(OC(C)=O)C(OC(C)=O)C1OC(C)=O` (stereo unspecified) was 167 to 168 °C.
`CCNc1cccc2c(S(=O)(=O)Nc3cnc(Br)cn3)cccc12` registered a melting point of 220 to 222 °C.
As for `CC(=O)OC1C(C)OC(Sc2ccccc2)C(OCc2ccccc2)C1OC(C)=O` (stereo unspecified), the figure is 124 °C; as for `CN(C)NC1=C2N=c3cc(Cl)ccc3=C2Oc2ccccc2N1C`, 196 to 197 °C; as for `CC(=O)Nc1ccnn1-c1c(F)cc(C(F)(F)F)cc1Cl`, 144 to 146 °C.
As for `COc1cc(C(=O)c2ccnn2C)c(Cl)c(Cl)c1OC`, the melting point lay in the range of 99.5 to 101 °C.
As for `CCOCc1nc2c(N)nc3ccccc3c2n1CC1(N)CCCCC1`, the figure is 166 to 168 °C; as for `CN(C)c1cc(F)c(S(=O)(=O)N(C)C)cc1-n1c(=O)cc(C(F)(F)F)n(C)c1=O`, 185 to 194 °C.
Compound `C[C@@H](n1cnc2cc(C(N)=O)ccc2c1=O)[C@](O)(Cn1cncn1)c1ccc(F)cc1F` had a melting point of 235 to 236 °C.
The value for `COC(=O)c1cccc(NC(=S)Nc2cc(NC(=O)Nc3ccc(Cl)c(Cl)c3)ccc2OC)c1` was 193 to 194 °C; that for `O=C(Nc1nc(-c2ccccc2)cs1)C(=O)OC1CCCCC1` was 160 to 161 °C; that for `Clc1cccc(OCC(Cn2ccnc2)Sc2c(Cl)cccc2Cl)c1Cl` (stereo unspecified) was 135 to 136 °C.
The value for `Cc1oc(-c2ccccc2)nc1COc1ccc(CC2SC(=N)NC2=O)cc1` (stereo unspecified) was 257 to 258 °C; that for `Nc1nc2c(s1)CCN(CC=Cc1cccc(OCc3ccccc3)c1)CC2` was 78 to 80 °C.
The value for `O=C(O)C(=O)c1ccc(OCCSc2ccc3ccccc3c2)cc1` was 121 to 123 °C; that for `COC(=O)c1cc(-c2cc(-c3ccccc3O)nc(NC(=O)c3cccs3)c2C#N)ccc1OC` was 271 to 273 °C.
Consider `CCC(=O)c1cc2c(=O)n(NS(C)(=O)=O)c(=O)[nH]c2cc1C(F)(F)F`, for which the melting point is 234 to 236 °C.
As for `C[C@@H](N(CCNC(=O)OC(C)(C)C)C(=O)c1ccc(C(F)(F)F)cc1)[C@](O)(Cn1cncn1)c1ccc(F)cc1F` (relative stereo), the figure is 135 to 143 °C; as for `CNC(=O)Nc1ccc2c(c1Cl)C(c1ccccc1F)=NCC(=O)N2C`, 145 to 160 °C.
`CC(C)(C)OC(=O)Nc1cc(OCC2COC(C)(C)O2)c(C#Cc2ccccc2)cc1[N+](=O)[O-]` (racemic) registered a melting point of 32 °C.
As for `CC(=O)NC(CC(C)C)C(=O)N1CC1C#N` (racemic), the melting point was in the range of 112 to 116 °C.
As for `CCS(=O)(=O)N1CCN(Cc2ccc(COc3cccc4c3CN(C3CCC(=O)NC3=O)C4=O)cc2)CC1` (stereo unspecified), the figure is 135 to 137 °C.
The value for `CCOC(=O)c1cn(N)c2cc(-n3cccc3)c(F)cc2c1=O` was 276 to 279 °C; that for `CN1C(=O)Cc2cc(C3=NNC(=O)C4CC34)ccc21` (stereo unspecified) was 265 to 267 °C; that for `Cn1nc(-c2nc(Br)c(N)nc2-c2ccccc2)ccc1=O` was 220 to 222 °C.
On to `CC(=O)SCC1=C(CSC(C)=O)C(=O)C(CSC(C)=O)=C(CSC(C)=O)C1=O`, for which the melting point fell in the range of 133 to 135 °C.
On to `Cn1c2ccccc2c2c(C(=O)C(F)(F)F)csc21`, for which the melting point lay within 138 to 140 °C.
Regarding `Clc1ccc(-n2cccn2)cc1`, the melting point lay within 50 to 53 °C.
The value for `CN1CCN(c2cc(Cl)cc3[nH]c(=O)n(Cc4ccccc4)c(=O)c23)CC1` was 208 to 210 °C; that for `CC12CCC(C1)C1(C)Oc3ccc(C(=O)c4ccc(C=O)cc4)cc3C21C` (stereo unspecified) was 138 to 142 °C; that for `CN1C(=O)[C@H](NC(=O)CCc2ccccc2C(F)(F)F)N=C(c2ccccc2)c2ccccc21` was 110 to 113 °C.
As for `CC(=O)CCCc1ccc(S(N)(=O)=O)s1`, the figure is 54 to 57 °C; as for `COC(=O)c1ccc(-c2ccc(-c3ccc4c(c3)C(C)(C)CCC4(C)C)s2)cc1`, 126 to 129 °C; as for `O=C1Cc2cc(F)ccc2Oc2ccccc21`, 63 to 64 °C.
As for `CCS(=O)(=O)N(C)C1CC(C)(C)Oc2ccc(O)cc21` (stereo unspecified), the figure is 160 to 162 °C; as for `COc1ccc(/C=C(\C#N)c2cccnc2)cc1OC1CCCC1`, 86.5 to 87.5 °C; as for `O=C(O)c1ccccc1-c1nnc(-c2cccc(C(F)(F)F)c2)o1`, 141 to 159 °C.
Compound `Cc1noc(NC(=O)N2CCN(c3cc(-c4cccc(F)c4)ncn3)CC2)c1C` yielded a melting point of 185 to 186 °C.
The value for `N#Cc1ccc2c(c1)C(CCC1CC1)(C(F)(F)F)c1nc[nH]c(=O)c1N2` (stereo unspecified) was > 280 °C.
As for `O=C(NCc1ccccc1Cl)C1Cc2ccccc2N1S(=O)(=O)c1ccc(-c2cccc(C(F)(F)F)c2)cc1` (stereo unspecified), the figure is 142 to 144 °C.
The value for `Nc1sc(-c2cccs2)c(CN(C2CCCCC2)C2CCCCC2)c1C(=O)c1ccc(Cl)cc1` was 197 to 199 °C; that for `CC(C)(C)c1cc(NC(=O)Nc2ccc(Oc3cccc(NC(=O)OCc4ccccc4)c3)cc2)no1` was 73 to 75 °C.
For the compound `Cc1c(C(=O)Nc2ccc(N3CCC(N4CCOCC4)CC3)c(C#N)c2)cnn1-c1ccc(I)cc1`, the melting point turned out to be 280 °C.
The value for `COCOc1cc2c(cc1-c1cc(C=CC(=O)O)ccc1O)C(C)(C)CCC2(C)C` was 101 to 103 °C; that for `O=C1c2cccnc2N(N2CCOCC2)C2=NCCN12` was 225 to 226 °C.
The compound `COc1cccc(-c2cn3c(ccc4ccccc43)n2)c1` had a melting point of 129 to 131 °C.
As for `Cn1c(-c2ccccc2S(C)=O)nc2ccccc21` (stereo unspecified), the figure is 157 to 159 °C; as for `FC(F)(F)C(Cc1ccccc1)c1ccccc1` (stereo unspecified), 58 to 61 °C; as for `CCC=NNC(=O)c1cc(OC)cc(Oc2cccc(C(F)(F)F)c2)n1`, 154 to 155 °C.
Regarding `CCCC(Oc1ccccc1Br)C(=O)O` (stereo unspecified), the melting point was 63 °C.
The compound `C=CCNc1ccc([N+](=O)[O-])cc1C(=O)c1ccccc1` displayed a melting point of 97 °C.
As for `CCCC(=O)N1N=C(c2ccc([N+](=O)[O-])cc2)c2cc(Cl)c(Cl)cc2CC1C` (stereo unspecified), the figure is 75 to 77 °C; as for `CCCC(C)(O)C(=O)Nc1cc(Br)[nH]c(=O)c1` (stereo unspecified), 188 °C; as for `CC(=O)C(=Cc1ccc(C=O)c([N+](=O)[O-])c1)C(C)=O`, 102 to 104 °C.
In the case of `CCOC(=O)c1sc(N)nc1CC`, the melting point is 177 to 179 °C.
`COc1cccc(-c2nc(-c3ccccn3)no2)c1` came in with a melting point of 96 to 99 °C.
The value for `OCC1CCN(CC(O)c2ccc(F)cc2)CC1` (stereo unspecified) was 113 °C; that for `Cc1c(C)c2c(c(C)c1N)CC(C)(CN1CCC(NC(c3ccc(F)cc3)c3ccc(F)cc3)CC1)O2` (stereo unspecified) was 133 to 134 °C; that for `CC#CCOc1ccc(S(=O)(=O)N(C)C2(C(=O)O)CCCCC2)cc1` was 124 to 126 °C.
As for `COc1cc(N)c(SC)cc1OC`, the figure is 72 to 74 °C; as for `CC(C)c1nc(N(C)S(C)(=O)=O)nc(-c2ccc(F)cc2)c1/C=C/C#N`, 134 °C; as for `CNc1c(C)cc([N+](=O)[O-])cc1C`, 99 °C.
As for `COC(=O)C1=Cc2cccc(OCc3ccccc3)c2CC1`, the figure is 64 to 67 °C.
With `CC12CC(N3CCC(O)CC3)C(O)CC1CCC1C2CCC2(C)C(O)C(N3CCCC3)CC12` (stereo unspecified), the melting point lay in the range of 188 to 190 °C.
